Test results published in ChEMBL document CHEMBL4330132, “5-Keto-3-cyano-2,4-diaminothiophenes as selective maternal embryonic leucine zipper kinase inhibitors” (Bioorg Med Chem Lett, 2019).

Key:
[1] = system: Receptor-type tyrosine-protein kinase FLT3 (Homo sapiens), P36888 [K663Q]; test: Binding affinity to human partial length FLT3 K663Q mutant (V592 to Y969 residues) expressed in bacterial expression system assessed as residual binding level at 1 uM by Kinomescan method relative to control
[2] = system: Leucine-rich repeat serine/threonine-protein kinase 2 (Homo sapiens), Q5S007 [G2019S]; test: Binding affinity to human partial length LRRK2 G2019S mutant (H970 to E2527 residues) expressed in mammalian expression system assessed as residual binding level at 1 uM by Kinomescan method relative to control
Leucine-rich repeat serine/threonine-protein kinase 2 (Homo sapiens), Q5S007 [G2019S], sequence (Q5S007 whole entry G2019S, the tested form may be a part): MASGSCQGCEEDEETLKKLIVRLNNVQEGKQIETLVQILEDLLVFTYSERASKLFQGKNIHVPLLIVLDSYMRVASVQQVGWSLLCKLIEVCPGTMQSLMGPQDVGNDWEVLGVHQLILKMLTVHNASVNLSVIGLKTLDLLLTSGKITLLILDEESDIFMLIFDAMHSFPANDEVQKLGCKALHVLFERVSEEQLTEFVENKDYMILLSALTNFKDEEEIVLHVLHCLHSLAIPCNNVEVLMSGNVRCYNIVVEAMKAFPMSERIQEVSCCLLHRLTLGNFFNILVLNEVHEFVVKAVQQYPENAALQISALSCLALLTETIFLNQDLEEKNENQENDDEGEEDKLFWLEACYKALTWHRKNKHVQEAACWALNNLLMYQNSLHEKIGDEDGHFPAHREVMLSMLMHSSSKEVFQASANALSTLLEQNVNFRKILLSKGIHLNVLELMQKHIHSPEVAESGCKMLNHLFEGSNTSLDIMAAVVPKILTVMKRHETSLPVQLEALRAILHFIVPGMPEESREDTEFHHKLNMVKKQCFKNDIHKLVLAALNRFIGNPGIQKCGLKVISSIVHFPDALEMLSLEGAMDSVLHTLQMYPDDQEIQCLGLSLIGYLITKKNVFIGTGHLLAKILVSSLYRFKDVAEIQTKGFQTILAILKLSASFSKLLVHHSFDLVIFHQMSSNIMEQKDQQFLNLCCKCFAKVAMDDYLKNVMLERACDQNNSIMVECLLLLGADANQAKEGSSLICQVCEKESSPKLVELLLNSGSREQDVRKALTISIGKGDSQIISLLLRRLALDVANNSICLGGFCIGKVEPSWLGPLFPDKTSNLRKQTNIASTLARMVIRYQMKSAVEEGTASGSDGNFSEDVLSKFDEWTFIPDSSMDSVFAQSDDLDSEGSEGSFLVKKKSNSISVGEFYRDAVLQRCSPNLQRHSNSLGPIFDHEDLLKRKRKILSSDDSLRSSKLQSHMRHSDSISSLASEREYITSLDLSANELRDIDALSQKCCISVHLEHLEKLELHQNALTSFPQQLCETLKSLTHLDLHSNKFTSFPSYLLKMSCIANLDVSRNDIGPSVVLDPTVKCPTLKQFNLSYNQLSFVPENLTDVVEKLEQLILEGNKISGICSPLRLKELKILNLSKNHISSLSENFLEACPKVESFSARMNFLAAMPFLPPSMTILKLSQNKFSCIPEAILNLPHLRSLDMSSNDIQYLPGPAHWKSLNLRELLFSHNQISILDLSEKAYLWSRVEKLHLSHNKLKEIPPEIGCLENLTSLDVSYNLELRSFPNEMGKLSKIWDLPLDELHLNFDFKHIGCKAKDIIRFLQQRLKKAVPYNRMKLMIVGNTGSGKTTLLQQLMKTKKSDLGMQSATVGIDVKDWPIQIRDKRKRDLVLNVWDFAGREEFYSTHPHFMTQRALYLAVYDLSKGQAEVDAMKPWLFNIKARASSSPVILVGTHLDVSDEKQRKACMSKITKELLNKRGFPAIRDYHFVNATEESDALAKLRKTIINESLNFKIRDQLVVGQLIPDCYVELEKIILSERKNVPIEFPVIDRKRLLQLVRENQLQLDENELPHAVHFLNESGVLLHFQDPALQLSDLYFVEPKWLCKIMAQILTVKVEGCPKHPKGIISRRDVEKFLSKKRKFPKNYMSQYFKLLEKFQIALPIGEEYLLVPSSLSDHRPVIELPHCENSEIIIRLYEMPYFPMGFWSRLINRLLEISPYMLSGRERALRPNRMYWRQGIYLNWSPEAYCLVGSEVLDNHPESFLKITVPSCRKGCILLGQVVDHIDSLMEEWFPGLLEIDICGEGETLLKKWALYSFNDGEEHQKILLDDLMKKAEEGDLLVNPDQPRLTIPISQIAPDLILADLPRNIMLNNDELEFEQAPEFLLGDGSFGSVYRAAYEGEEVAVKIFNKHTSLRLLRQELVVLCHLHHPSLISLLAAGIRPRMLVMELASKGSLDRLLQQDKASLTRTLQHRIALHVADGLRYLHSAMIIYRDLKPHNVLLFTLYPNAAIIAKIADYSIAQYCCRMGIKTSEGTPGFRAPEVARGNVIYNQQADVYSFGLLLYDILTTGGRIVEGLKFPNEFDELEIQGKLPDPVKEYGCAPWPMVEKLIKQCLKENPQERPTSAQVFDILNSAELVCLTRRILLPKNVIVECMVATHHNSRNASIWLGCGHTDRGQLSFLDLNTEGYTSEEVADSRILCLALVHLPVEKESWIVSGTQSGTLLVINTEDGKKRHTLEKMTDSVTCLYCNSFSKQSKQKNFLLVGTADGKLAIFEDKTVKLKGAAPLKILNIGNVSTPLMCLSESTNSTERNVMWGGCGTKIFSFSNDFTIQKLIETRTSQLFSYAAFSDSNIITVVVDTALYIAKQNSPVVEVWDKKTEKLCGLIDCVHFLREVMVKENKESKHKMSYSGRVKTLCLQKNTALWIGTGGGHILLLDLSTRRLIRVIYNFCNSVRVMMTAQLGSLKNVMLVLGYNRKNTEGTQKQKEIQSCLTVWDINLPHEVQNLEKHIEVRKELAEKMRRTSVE

[3] = molecular target: Cyclin-dependent kinase 5 (Homo sapiens) (UniProt Q00535); test: Binding affinity to wild-type human full length CDK5 (M1 to P292 residues) expressed in bacterial expression system assessed as residual binding level at 1 uM by Kinomescan method relative to control
Cyclin-dependent kinase 5 (Homo sapiens), sequence (Q00535 whole entry, looked up, the tested form may be a part): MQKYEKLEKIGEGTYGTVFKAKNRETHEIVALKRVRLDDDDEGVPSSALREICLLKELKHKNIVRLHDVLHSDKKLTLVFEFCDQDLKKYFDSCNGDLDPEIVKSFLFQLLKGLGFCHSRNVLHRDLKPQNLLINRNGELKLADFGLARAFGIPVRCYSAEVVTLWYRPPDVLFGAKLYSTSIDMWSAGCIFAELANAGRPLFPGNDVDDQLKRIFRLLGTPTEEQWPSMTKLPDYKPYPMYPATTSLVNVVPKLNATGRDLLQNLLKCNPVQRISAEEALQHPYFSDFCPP

[4] = molecular target: Serine/threonine-protein kinase ULK2 (Homo sapiens) (UniProt Q8IYT8); test: Binding affinity to wild-type human partial length ULK2 (M1 to S301 residues) expressed in mammalian expression system assessed as residual binding level at 1 uM by Kinomescan method relative to control
Serine/threonine-protein kinase ULK2 (Homo sapiens), sequence (Q8IYT8 whole entry, the tested form may be a part): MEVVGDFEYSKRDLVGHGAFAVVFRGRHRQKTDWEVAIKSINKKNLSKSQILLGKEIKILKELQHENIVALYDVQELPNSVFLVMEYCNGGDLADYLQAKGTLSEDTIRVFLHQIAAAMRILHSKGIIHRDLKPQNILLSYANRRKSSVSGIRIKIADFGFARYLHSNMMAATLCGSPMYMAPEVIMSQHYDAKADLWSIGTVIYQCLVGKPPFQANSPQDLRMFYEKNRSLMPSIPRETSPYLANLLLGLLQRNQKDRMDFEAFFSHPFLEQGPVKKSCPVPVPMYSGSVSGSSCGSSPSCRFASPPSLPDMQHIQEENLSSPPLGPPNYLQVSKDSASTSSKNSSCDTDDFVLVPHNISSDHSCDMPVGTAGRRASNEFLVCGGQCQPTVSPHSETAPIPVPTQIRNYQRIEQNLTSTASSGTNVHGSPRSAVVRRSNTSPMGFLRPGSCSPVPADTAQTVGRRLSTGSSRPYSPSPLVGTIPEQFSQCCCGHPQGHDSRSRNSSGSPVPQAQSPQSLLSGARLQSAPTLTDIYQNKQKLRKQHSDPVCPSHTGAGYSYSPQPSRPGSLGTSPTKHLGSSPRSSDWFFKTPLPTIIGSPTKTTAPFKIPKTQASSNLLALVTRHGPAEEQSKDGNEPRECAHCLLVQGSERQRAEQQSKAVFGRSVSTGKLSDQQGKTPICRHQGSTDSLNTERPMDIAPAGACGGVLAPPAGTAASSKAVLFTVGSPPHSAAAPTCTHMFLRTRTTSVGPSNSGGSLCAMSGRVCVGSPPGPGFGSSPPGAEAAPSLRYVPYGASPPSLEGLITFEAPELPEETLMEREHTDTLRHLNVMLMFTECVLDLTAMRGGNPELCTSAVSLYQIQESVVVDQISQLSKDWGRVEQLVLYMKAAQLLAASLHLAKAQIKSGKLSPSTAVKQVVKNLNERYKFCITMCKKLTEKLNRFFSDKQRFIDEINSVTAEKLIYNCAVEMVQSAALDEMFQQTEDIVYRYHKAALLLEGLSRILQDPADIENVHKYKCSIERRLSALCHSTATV

[5] = molecular target: Cytoplasmic tyrosine-protein kinase BMX (Homo sapiens) (UniProt P51813); test: Binding affinity to wild-type human full length BMX (M1 to H675 residues) expressed in bacterial expression system assessed as residual binding level at 1 uM by Kinomescan method relative to control
[6] = molecular target: Calcium/calmodulin-dependent protein kinase type II subunit alpha (Homo sapiens) (UniProt Q9UQM7); test: Binding affinity to wild-type human partial length CAMK2A (M1 to K328 residues) expressed in bacterial expression system assessed as residual binding level at 1 uM by Kinomescan method relative to control
Calcium/calmodulin-dependent protein kinase type II subunit alpha (Homo sapiens), sequence (Q9UQM7 whole entry, the tested form may be a part): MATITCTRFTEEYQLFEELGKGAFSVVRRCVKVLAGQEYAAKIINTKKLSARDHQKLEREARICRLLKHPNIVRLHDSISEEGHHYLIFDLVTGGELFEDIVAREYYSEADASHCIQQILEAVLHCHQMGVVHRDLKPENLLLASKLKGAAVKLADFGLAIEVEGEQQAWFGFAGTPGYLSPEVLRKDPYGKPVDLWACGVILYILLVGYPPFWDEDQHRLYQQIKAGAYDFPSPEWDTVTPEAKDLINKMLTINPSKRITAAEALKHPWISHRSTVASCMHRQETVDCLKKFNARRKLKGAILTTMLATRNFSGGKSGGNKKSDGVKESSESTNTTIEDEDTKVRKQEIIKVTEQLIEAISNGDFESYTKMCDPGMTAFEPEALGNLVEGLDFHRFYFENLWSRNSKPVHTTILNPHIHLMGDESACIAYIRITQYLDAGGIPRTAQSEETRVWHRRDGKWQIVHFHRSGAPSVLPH

[7] = molecular target: Phosphatidylinositol 4-phosphate 5-kinase type-1 alpha (Homo sapiens) (UniProt Q99755); test: Binding affinity to wild-type human full length PIP5K1A (M1 to H562 residues) expressed in bacterial expression system assessed as residual binding level at 1 uM by Kinomescan method relative to control
Phosphatidylinositol 4-phosphate 5-kinase type-1 alpha (Homo sapiens), sequence (Q99755 whole entry, the tested form may be a part): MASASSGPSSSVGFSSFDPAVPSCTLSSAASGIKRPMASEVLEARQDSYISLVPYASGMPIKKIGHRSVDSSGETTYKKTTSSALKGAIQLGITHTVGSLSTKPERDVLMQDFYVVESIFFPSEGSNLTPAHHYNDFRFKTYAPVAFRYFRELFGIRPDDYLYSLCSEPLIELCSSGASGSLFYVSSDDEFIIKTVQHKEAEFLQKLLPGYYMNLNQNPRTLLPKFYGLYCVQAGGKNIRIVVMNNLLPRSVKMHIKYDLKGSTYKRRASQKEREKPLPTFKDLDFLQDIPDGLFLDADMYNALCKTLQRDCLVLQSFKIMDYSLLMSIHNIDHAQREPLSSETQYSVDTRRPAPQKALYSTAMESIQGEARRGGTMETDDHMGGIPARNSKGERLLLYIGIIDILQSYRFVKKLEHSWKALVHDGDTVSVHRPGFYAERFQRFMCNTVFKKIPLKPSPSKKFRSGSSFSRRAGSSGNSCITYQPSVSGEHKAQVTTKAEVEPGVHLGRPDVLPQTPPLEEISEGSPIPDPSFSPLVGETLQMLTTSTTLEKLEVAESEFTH

## CC(C)Nc1sc(C(=O)c2ccc(Cl)s2)c(N)c1C#N
[1]
  Activity: 96%
[2]
  Activity: 79%
[3]
  Activity: 100%
[4]
  Activity: 100%
[5]
  Activity: 100%
[6]
  Activity: 90%
[7]
  Activity: 81%
